{"source": "the supplement of paper PMC10307832", "experiment_in_all_cases": "relative viability (nuclei count vs DMSO), 5 days (fraction); higher = more cells survive", "key": {"[1]": {"compound": "COc1nc(N)nc2c1ncn2[C@@H]1O[C@H](CO)[C@@H](O)[C@@H]1O [Nelarabine] + CC1(C)CCC(c2ccc(Cl)cc2)=C(CN2CCN(c3ccc(C(=O)NS(=O)(=O)c4ccc(N[C@H](CCN5CCOCC5)CSc5ccccc5)c(S(=O)(=O)C(F)(F)F)c4)cc3)CC2)C1 [Navitoclax] (partner 0.5 µM)", "method_in_brief": "(§1)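 Dosing by pin tool came one day after lung cancer cell lines were seeded in 1536-well plates, using either one drug or a fixed anchor-drug dose plus five library-drug doses (not always all listed) in √10 steps. After 5 days, nuclei were counted on 4× images. Relative viability is treated-well nuclei count divided by vehicle-well nuclei count, and values are medians of duplicate plates.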"}, "[2]": {"compound": "COc1nc(N)nc2c1ncn2[C@@H]1O[C@H](CO)[C@@H](O)[C@@H]1O [Nelarabine] + CS(=O)(=O)CCNCc1ccc(-c2ccc3ncnc(Nc4ccc(OCc5cccc(F)c5)c(Cl)c4)c3c2)o1 [Lapatinib] (partner 2 µM)", "method_in_brief": "as §1"}, "[3]": {"compound": "COc1nc(N)nc2c1ncn2[C@@H]1O[C@H](CO)[C@@H](O)[C@@H]1O [Nelarabine] + COc1cc2c(Oc3ccc(NC(=O)C4(C(=O)Nc5ccc(F)cc5)CC4)cc3F)ccnc2cc1OCCCN1CCOCC1 [Foretinib] (partner 0.25 µM)", "method_in_brief": "as §1"}, "[4]": {"compound": "C=CCn1c(=O)c2cnc(Nc3ccc(N4CCN(C)CC4)cc3)nc2n1-c1cccc(C(C)(C)O)n1 [Adavosertib] + CC(=O)Nc1cccc(-n2c(=O)n(C3CC3)c(=O)c3c(Nc4ccc(I)cc4F)n(C)c(=O)c(C)c32)c1 [Trametinib] (partner 0.02 µM)", "method_in_brief": "as §1"}}}
{"cell line": "EMC-BAC-2", "values": [{"measurement": "relative viability", "setting": "[1]; first compound 0.01 µM", "value": 1.45}, {"measurement": "relative viability", "setting": "[1]; first compound 0.03162 µM", "value": 1.11}, {"measurement": "relative viability", "setting": "[1]; first compound 0.1 µM", "value": 1.25}, {"measurement": "relative viability", "setting": "[1]; first compound 0.3162 µM", "value": 1.38}, {"measurement": "relative viability", "setting": "[1]; first compound 1 µM", "value": 1.16}, {"measurement": "relative viability", "setting": "[2]; first compound 0.01 µM", "value": 1.05}, {"measurement": "relative viability", "setting": "[2]; first compound 0.03162 µM", "value": 0.909}, {"measurement": "relative viability", "setting": "[2]; first compound 0.1 µM", "value": 0.883}, {"measurement": "relative viability", "setting": "[2]; first compound 0.3162 µM", "value": 0.962}, {"measurement": "relative viability", "setting": "[2]; first compound 1 µM", "value": 0.885}, {"measurement": "relative viability", "setting": "[3]; first compound 0.01 µM", "value": 1.06}, {"measurement": "relative viability", "setting": "[3]; first compound 0.03162 µM", "value": 1}, {"measurement": "relative viability", "setting": "[3]; first compound 0.1 µM", "value": 0.913}, {"measurement": "relative viability", "setting": "[3]; first compound 0.3162 µM", "value": 0.975}, {"measurement": "relative viability", "setting": "[3]; first compound 1 µM", "value": 0.963}, {"measurement": "relative viability", "setting": "[4]; first compound 0.03162 µM", "value": 0.938}, {"measurement": "relative viability", "setting": "[4]; first compound 0.1 µM", "value": 0.894}, {"measurement": "relative viability", "setting": "[4]; first compound 0.3162 µM", "value": 0.927}]}
